Measurements taken from patent publication US9700572B2, “Anti-cancer agent” (priority 2012, dated 2017).

Key:
[1] = tested on: pancreas cancer cell PANC-1; test: Test Example 8: PI staining (dead cell staining), FACS; format: cell-based, human; details: 3 μM arctigenin
Procedure: (§1) For preparation of the glucose-containing medium, 4.75 g of Dulbecco's modified Eagle medium 2 (Nissui Pharmaceutical) was dissolved in water, added by 12.5 ml of 1M HEPES pH 7.4 (DOJINDO LABORATORIES, 342-01375), sterilized, added by 18.5 ml of 10% NAHCO3, 10 ml of L-glutamine (Sigma-Aldrich), 5 ml of Anti-Anti (Life technologies), 5 ml of MEM NON-ESSENTIAL AMINO ACID SOLUTION (Sigma-Aldrich) and 50 ml of FETAL BOVINE SERUM (Biowest) that was inactivated in a warm bath at 56° C. for 30 minutes, and finally filled up to 500 ml. The glucose inhibition medium was prepared by adding 2-Deoxy-Glucose (2-DG) (Tokyo Chemical Industry) in 20 mM of final concentration to the glucose-containing medium. The medium containing 3 μM arctigenin was prepared by adding arctigenin ([…] Pharmaceutical) in 3 μM of final concentration to the glucose-containing medium or the glucose inhibition medium. For preparation of FACS buffer, 10 g of Bovine serum albumin Protease free (Wako Pure Chemical industries) was dissolved in 1 L of PBS (-), added by sodium azide in 0.1% of final concentration and performed filtration sterilization. The pancreas cancer cell PANC-1 (ATCC No CRL-1469 was seeded in a glucose-containing medium, incubated overnight and then incubated in each of the glucose-containing medium, the glucose inhibition medium, the glucose-containing medium containing 3 μM arctigenin and the glucose inhibition medium containing 3 μM arctigenin for 24 hours. After collected cells, PI staining (dead cell staining) and cancer stem cell marker staining were carried out according to the usual method and an Analysis was carried out using flow cytometry (FACS). For a marker, triple positive of CD44, CD24 and ESA (CD326) or double positive of CD44 positive and c-Met strong positive which were reported as a stem cell marker of pancreas cancer were used.

[2] = tested on: pancreas cancer cell Capan-1; test: Test Example 9: PI staining (dead cell staining), FACS; format: cell-based, human; details: 24 hours
Procedure: (§2) For preparation of the glucose-containing medium, 4.75 g of Dulbecco's modified Eagle medium 2 (Nissui Pharmaceutical) was dissolved in water, added by 12.5 ml of 1M HEPES pH 7.4 (DOJINDO LABORATORIES, 342-01375), sterilized, added by 18.5 ml of 10% NAHCO3, 10 ml of L-glutamine (Sigma-Aldrich), 5 ml of Anti-Anti (Life technologies), 5 ml of MEM NON-ESSENTIAL AMINO ACID SOLUTION (Sigma-Aldrich) and 50 ml of FETAL BOVINE SERUM (Biowest) that was inactivated in a warm bath at 56° C. for 30 minutes, and finally filled up to 500 ml. The glucose inhibition medium was prepared by adding 2-Deoxy-Glucose (2-DG) (Tokyo Chemical industry) in 15 mM of final concentration to the glucose-containing medium. The medium containing 4 μM arctigenin was prepared by adding arctigenin ([…] Pharmaceutical) in 4 μM of final concentration to the glucose-containing medium or the glucose inhibition medium. The pancreas cancer cell Capan-1 (ATCC No. HTB-79) was seeded in a glucose-containing medium, incubated overnight and then incubated in each of a glucose-containing medium, a glucose inhibition medium, a glucose-containing medium containing 4 μM arctigenin and a glucose inhibition medium containing 4 μM arctigenin, or in 7 μM cisplatin (CDDP: Wako Pure Chemical Industries) for 24 hours. After collected cells, PI staining (dead cell staining) and cancer stem cell marker staining were carried out according to the usual method and an Analysis was carried out using flow cytometry (FACS). For the marker, triple positive of CD44, CD24 and ESA (CD326) which was reported as a stern cell marker of pancreas cancer was used.

[3] = tested on: pancreas cancer cell line PANC-1; details: PANC-1 screening; cited from earlier work
[4] = cited from earlier work
[5] = tested on: CD44+ESA+CD24+ pancreas cancer stem cell (Capan-1); test: Test Example 9: cancer stem cell marker staining (CD44, CD24, ESA), FACS; format: cell-based, human
Procedure: as §2

[6] = tested on: CD44+,c-MetHigh pancreas cancer stem cell (PANC-1); test: Test Example 8: cancer stem cell marker staining (CD44, c-Met), FACS; format: cell-based, human; details: 3 μM arctigenin
Procedure: as §1, with “sterilization. For the fluorescence-labeled antibody for FACS assays, CD44 (338803 or 338807, BioLegend), CD24 (311117, BioLegend), ESA (324205, BioLegend) and c-[…]-8858, eBioscience) were used. In addition, a staining step was carried out according to the attached data sheet to the product.” for “sterilization.”

[7] = tested on: human pancreas cancer cell line PSN-1; test: Test Example 6: antitumor evaluation in tumor model animal (PSN-1 Xenografts); format: in vivo, nude mouse; details: 50 μg per mouse orally five times a week; one month; FIG. 5
Procedure: (§3) The model animal of a tumor was made by seeding human pancreas cancer cell line CAPAN-1 or PSN-1 in subcutis of back of a nude mouse (BALB-cAJnu/nu; CLEA Japan, Inc.) as a donor and transplanting the tumor mass of the provided donor mouse into subcutis of back of a recipient mouse, Arctigenin (AG), arctiin (A) and the burdock fruit extract (Example 12) were dissolved in DMSO in concentration of 10 mg/ml, diluted with a saline, and then administered orally in stomach at 50 μg per one mouse five times a week. The anticancerous was evaluated by measuring the size of the subcutaneous tumor mass of the back with time.

[8] = tested on: human pancreas cancer cell line CAPAN-1; test: Test Example 6: antitumor evaluation in tumor model animal (CAPAN-1 Xenografts); format: in vivo, nude mouse; details: 50 μg per mouse orally five times a week; one month; FIG. 4
Procedure: as §3

[9] = tested on: CD44+ESA+CD24+ pancreas cancer stem cell (PANC-1); test: Test Example 8: cancer stem cell marker staining (CD44, CD24, ESA), FACS; format: cell-based, human; details: 3 μM arctigenin
Procedure: as §1, with “sterilization. For the fluorescence-labeled antibody for FACS assays, CD44 (338803 or 338807, BioLegend), CD24 (311117, BioLegend), ESA (324205, BioLegend) and c-[…]-8858, eBioscience) were used. In addition, a staining step was carried out according to the attached data sheet to the product.” for “sterilization.”

SMILES: COc1cc(C[C@H]2C(=O)OC[C@@H]2Cc2ccc(OC)c(OC)c2)ccc1O [arctigenin]
- cellular survival rate (PI staining) ([1]; glucose inhibition condition (20 mM 2-DG), 24 hours, FIG. 6, without arctigenin 68.53%): 35.71%
- cellular survival rate (PI staining) ([1]; glucose inhibition condition, FIG. 7, without arctigenin 88.80%): 27.50%
- cellular survival rate (PI staining) ([1]; glucose-containing condition, 24 hours, FIG. 6, without arctigenin 78.20%): 69.50%
- cellular survival rate (PI staining) ([1]; glucose-containing condition, FIG. 7, without arctigenin 84.70%): 83.30%
- cellular survival rate (PI staining) ([2]; 4 μM arctigenin, glucose inhibition condition (15 mM 2-DG), without arctigenin 79.10%): 48.73%
- cellular survival rate (PI staining) ([2]; 4 μM arctigenin, glucose-containing condition, without arctigenin 67.57%): 72.80%
- cancel the viability of tumor cells under undernutrition condition [3]: effective
- solubility in water [4]: hardly soluble
- ratio of CD44+ESA+CD24+ cell in all analyzed cells ([5]; 4 μM arctigenin, glucose inhibition condition, without arctigenin 1.40%): 0.24%
- ratio of CD44+ESA+CD24+ cell analyzed in viable cells ([5]; 4 μM arctigenin, glucose inhibition condition, without arctigenin 1.77%): 0.50%
- number of the survival of CD44+ESA+CD24+ cell ([5]; 4 μM arctigenin, glucose inhibition condition, without arctigenin 105): 18
- ratio of CD44+ESA+CD24+ cell in all analyzed cells ([5]; 4 μM arctigenin, glucose-containing condition, without arctigenin 0.87%): 1.04%
- ratio of CD44+ESA+CD24+ cell analyzed in viable cells ([5]; 4 μM arctigenin, glucose-containing condition, without arctigenin 1.28%): 1.43%
- number of the survival of CD44+ESA+CD24+ cell ([5]; 4 μM arctigenin, glucose-containing condition, without arctigenin 65): 78
- positive ratio of CD44+,c-MetHigh cell in all analyzed cells ([6]; glucose inhibition condition, without arctigenin 0.78%): 0.22%
- number of the survival of CD44+,c-MetHigh cell ([6]; glucose inhibition condition, without arctigenin 47): 13
- positive ratio of CD44+,c-MetHigh cell in all analyzed cells ([6]; glucose-containing condition, without arctigenin 0.63%): 0.52%
- number of the survival of CD44+,c-MetHigh cell ([6]; glucose-containing condition, without arctigenin 38): 31
- antitumor effect (size of subcutaneous tumor mass) [7]: antitumor effect was also obtained
- antitumor effect (size of subcutaneous tumor mass) [8]: antitumor effect was also obtained
- ratio of CD44+ESA+CD24+ cell in all analyzed cells ([9]; glucose inhibition condition, without arctigenin 6.51%): 0.98%
- number of the survival of CD44+ESA+CD24+ cell ([9]; glucose inhibition condition, without arctigenin 651): 98
- ratio of CD44+ESA+CD24+ cell in all analyzed cells ([9]; glucose-containing condition, without arctigenin 4.41%): 5.01%
- number of the survival of CD44+ESA+CD24+ cell ([9]; glucose-containing condition, without arctigenin 441): 501

SMILES: COc1ccc(C[C@H]2COC(=O)[C@@H]2Cc2ccc(O[C@@H]3O[C@H](CO)[C@@H](O)[C@H](O)[C@H]3O)c(OC)c2)cc1OC [arctiin]
- solubility in water [4]: hardly soluble

SMILES: N.N.[Cl][Pt][Cl] [cisplatin, reference compound]
- cellular survival rate (PI staining) ([2]; 7 μM cisplatin): 58.08%
- number of the survival of CD44+ESA+CD24+ cell ([5]; 7 μM cisplatin treatment): 88
- ratio of CD44+ESA+CD24+ cell analyzed in viable cells ([5]; 7 μM cisplatin treatment): 2.02%
- ratio of CD44+ESA+CD24+ cell in all analyzed cells ([5]; 7 μM cisplatin treatment): 1.17%
